US8999940B2 (Ipsen Pharma S.A.S., priority 2008, dated 2015)
Read-outs that look alike come from different tables or passages of the source. Where a SMILES comes first, the peptide text is derived from it. Where no end group is shown, it is not given here. [ ]: non-standard residue; d: D form. The star is where a group is joined. Tyr(3-OMe) = COc1cc(C[C@H](N)C(=O)O)ccc1O; Tic(7-OH) = O=C(O)[C@@H]1Cc2ccc(O)cc2CN1; Desaminotyrosyl = O=C(CCc1ccc(O)cc1)*; Nle = CCCC[C@H](N)C(=O)O; Ac5c = NC1(C(=O)O)CCCC1; Aib = CC(C)(N)C(=O)O

Tests used:
[1] = Rat plasma half-life assay; format: in vitro ADME; settings: 37° C., LC-MS, read-out: Rat Plasma T½ (converted)
Method: (§1) B. Human and Rat Plasma Half-Life Assay
(§2) 50 μl was removed at various times, like at 0, 1, 2, 3, 4, 8, 24, 32, 48, 56, 72 hours, mixed with 5 μl formic acid and 150 μL acetonitrile in a microcentrifuge tube, vertexed, and centrifuged for 10 minutes at 10 K rpm. The supernatant was transferred to an injection vial and analyzed by LC-MS. The LC-MS system consisted of an API4000 mass spectrometer with an ESI probe. Positive ion mode and full scan detection were used. HPLC separation was carried out on a Luna 3μ. C8 (2), 2×30 mm column with a gradient from 90% A to 90% B in 10 minutes at a flow rate of 0.3 ml/min. Buffer A was 1% formic acid in water and buffer B was 1% formic acid acetonitrile.

[2] = molecular target: T1, human recombinant GIP receptor (Homo sapiens, UniProt P48546); assay: In vitro hGIP receptor binding assay
T1 construct: expressed in transfected cells; host or cells: CHO-K1 clonal cells (membrane preparation)
T1 sequence (P48546 22-466): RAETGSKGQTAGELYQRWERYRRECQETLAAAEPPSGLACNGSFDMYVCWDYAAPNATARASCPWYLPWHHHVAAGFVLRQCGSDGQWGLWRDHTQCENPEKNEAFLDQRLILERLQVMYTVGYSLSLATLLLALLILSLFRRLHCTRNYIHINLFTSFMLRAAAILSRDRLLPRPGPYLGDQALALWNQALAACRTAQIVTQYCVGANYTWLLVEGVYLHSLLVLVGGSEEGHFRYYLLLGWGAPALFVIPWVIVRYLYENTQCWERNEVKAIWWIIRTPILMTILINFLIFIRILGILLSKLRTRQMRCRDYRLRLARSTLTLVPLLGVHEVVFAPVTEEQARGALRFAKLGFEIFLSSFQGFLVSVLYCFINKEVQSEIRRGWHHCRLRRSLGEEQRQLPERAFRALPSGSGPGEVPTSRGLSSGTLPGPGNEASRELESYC
Method: A. In Vitro hGIP Receptor Binding Assay […] The incubations were terminated by rapid filtration through GF/C filters (pre-soaked in 0.5% polyethylenimine) using a Brandel filtration manifold. Each tube and filter were then washed three times with 5-ml aliquots of ice-cold buffer.

[3] = Human plasma half-life assay; format: in vitro ADME; settings: 37° C., LC-MS, read-out: Human Plasma T½ (converted)
Method: as §1, §2

Row | Compound | half-life at 0.1 mg/ml [1] | Ki [2] | half-life at 0.1 mg/ml [3] | other results
1 | CCCC[C@H](NC(=O)[C@H](C)NC(=O)[C@@H](NC(=O)[C@H](CO)NC(=O)[C@H](Cc1ccc(O)cc1)NC(=O)[C@H](CC(=O)O)NC(=O)[C@H](CO)NC(=O)[C@@H](NC(=O)[C@H](Cc1ccccc1)NC(=O)[C@@H](NC(=O)CNC(=O)[C@H](CCC(=O)O)NC(=O)C(C)(C)NC(=O)CCc1ccc(O)cc1)[C@@H](C)O)[C@@H](C)CC)[C@@H](C)CC)C(=O)N[C@@H](CC(=O)O)C(=O)N[C@@H](CCCCN)C(=O)N[C@H](C(=O)N[C@@H](Cc1c[nH]cn1)C(=O)N[C@@H](CCC(N)=O)C(=O)N[C@@H](CCC(N)=O)C(=O)N[C@@H](CC(=O)O)C(=O)N[C@@H](Cc1ccccc1)C(=O)N[C@H](C(=O)N[C@@H](CC(N)=O)C(=O)N[C@@H](Cc1c[nH]c2ccccc12)C(=O)N[C@@H](CC(C)C)C(=O)N[C@@H](CC(C)C)C(=O)N[C@@H](C)C(=O)N[C@@H](CCC(N)=O)C(=O)N[C@@H](CCCCN)C(N)=O)C(C)C)[C@@H](C)CC [Example 5, (4Hppa^1, Aib^2, Nle^14)hGIP(1-30)-NH2] (Desaminotyrosyl-[Aib]EGTFISDYSIA[Nle]DKIHQQDFVNWLLAQK-NH2) | 83.5 h | 2.95 nM | 50.6 h | 
2 | CCCC[C@H](NC(=O)[C@H](C)NC(=O)[C@@H](NC(=O)[C@H](CO)NC(=O)[C@H](Cc1ccc(O)cc1)NC(=O)[C@H](CC(=O)O)NC(=O)[C@H](CO)NC(=O)[C@@H](NC(=O)[C@H](Cc1ccccc1)NC(=O)[C@@H](NC(=O)CNC(=O)[C@@H]1CCCN1C(=O)C(C)(C)NC(=O)CCc1ccc(O)cc1)[C@@H](C)O)[C@@H](C)CC)[C@@H](C)CC)C(=O)N[C@@H](CC(=O)O)C(=O)N[C@@H](CCCCN)C(=O)N[C@H](C(=O)N[C@@H](Cc1c[nH]cn1)C(=O)N[C@@H](CCC(N)=O)C(=O)N[C@@H](CCC(N)=O)C(=O)N[C@@H](CC(=O)O)C(=O)N[C@@H](Cc1ccccc1)C(=O)N[C@H](C(=O)N[C@@H](CC(N)=O)C(=O)N[C@@H](Cc1c[nH]c2ccccc12)C(=O)N[C@@H](CC(C)C)C(=O)N[C@@H](CC(C)C)C(=O)N[C@@H](C)C(=O)N[C@@H](CCC(N)=O)C(=O)N[C@@H](CCCCN)C(N)=O)C(C)C)[C@@H](C)CC [Example 9, (4Hppa^1, Aib^2, hPro^3, Nle^14)hGIP(1-30)-NH2] (Desaminotyrosyl-[Aib]PGTFISDYSIA[Nle]DKIHQQDFVNWLLAQK-NH2) |  |  |  | half-life [1]: 14 h; half-life [3]: 26.5 h
3 | CCCC[C@H](NC(=O)C(C)(C)NC(=O)[C@@H](NC(=O)[C@H](CO)NC(=O)[C@H](Cc1ccc(O)cc1)NC(=O)[C@H](CC(=O)O)NC(=O)[C@H](CO)NC(=O)[C@@H](NC(=O)[C@H](Cc1ccccc1)NC(=O)[C@@H](NC(=O)CNC(=O)[C@H](CCC(=O)O)NC(=O)C(C)(C)NC(=O)[C@@H](N)Cc1c[nH]cn1)[C@@H](C)O)[C@@H](C)CC)[C@@H](C)CC)C(=O)N[C@@H](CC(=O)O)C(=O)N[C@@H](CCCCN)C(=O)N[C@H](C(=O)N[C@@H](Cc1c[nH]cn1)C(=O)N[C@@H](CCC(N)=O)C(=O)N[C@@H](CCC(N)=O)C(=O)N[C@@H](CC(=O)O)C(=O)N[C@@H](Cc1ccccc1)C(=O)N[C@H](C(=O)N[C@@H](CC(N)=O)C(=O)N[C@@H](Cc1c[nH]c2ccccc12)C(=O)N[C@@H](CC(C)C)C(=O)N[C@@H](CC(C)C)C(=O)N[C@@H](C)C(=O)N[C@@H](CCC(N)=O)C(=O)N[C@@H](CCCCN)C(=O)NCC(=O)N[C@@H](CCCCN)C(=O)N[C@@H](CCCCN)C(=O)N[C@@H](CC(N)=O)C(=O)N[C@@H](CC(=O)O)C(=O)N[C@@H](Cc1c[nH]c2ccccc12)C(=O)N[C@@H](CCCCN)C(=O)N[C@@H](Cc1c[nH]cn1)C(=O)N[C@@H](CC(N)=O)C(=O)N[C@H](C(=O)N[C@H](C(=O)N[C@@H](CCC(N)=O)C(=O)O)[C@@H](C)O)[C@@H](C)CC)C(C)C)[C@@H](C)CC [Example 10, (His^1, Aib^2, 13, Nle^14)hGIP(1-42)-OH] | 9.2 h | 3.33 nM | 71.4 h | 
4 | CCCC[C@H](NC(=O)[C@H](C)NC(=O)[C@@H](NC(=O)C1(NC(=O)[C@H](Cc2ccc(O)cc2)NC(=O)[C@H](CC(=O)O)NC(=O)[C@H](CO)NC(=O)[C@@H](NC(=O)[C@H](Cc2ccccc2)NC(=O)[C@@H](NC(=O)CNC(=O)[C@H](CCC(=O)O)NC(=O)C(C)(C)NC(=O)[C@@H](N)Cc2c[nH]cn2)[C@@H](C)O)[C@@H](C)CC)CCCC1)[C@@H](C)CC)C(=O)N[C@@H](CC(=O)O)C(=O)N[C@@H](CCCCN)C(=O)N[C@H](C(=O)N[C@@H](Cc1c[nH]cn1)C(=O)N[C@@H](CCC(N)=O)C(=O)N[C@@H](CCC(N)=O)C(=O)N[C@@H](CC(=O)O)C(=O)N[C@@H](Cc1ccccc1)C(=O)N[C@H](C(=O)N[C@@H](CC(N)=O)C(=O)N[C@@H](Cc1c[nH]c2ccccc12)C(=O)N[C@@H](CC(C)C)C(=O)N[C@@H](CC(C)C)C(=O)N[C@@H](C)C(=O)N[C@@H](CCC(N)=O)C(=O)N[C@@H](CCCCN)C(=O)NCC(=O)N[C@@H](CCCCN)C(=O)N[C@@H](CCCCN)C(=O)N[C@@H](CC(N)=O)C(=O)N[C@@H](CC(=O)O)C(=O)N[C@@H](Cc1c[nH]c2ccccc12)C(=O)N[C@@H](CCCCN)C(=O)N[C@@H](Cc1c[nH]cn1)C(=O)N[C@@H](CC(N)=O)C(=O)N[C@H](C(=O)N[C@H](C(=O)N[C@@H](CCC(N)=O)C(=O)O)[C@@H](C)O)[C@@H](C)CC)C(C)C)[C@@H](C)CC [Example 12, (His^1, Aib^2, A5c^11, Nle^14)hGIP(1-42)-OH] | 11 h | 3.18 nM | 82.5 h | 
5 | CC[C@H](C)[C@H](NC(=O)[C@H](CCCCN)NC(=O)[C@H](CC(=O)O)NC(=O)C1(NC(=O)[C@H](C)NC(=O)[C@@H](NC(=O)C2(NC(=O)[C@H](Cc3ccc(O)cc3)NC(=O)[C@H](CC(=O)O)NC(=O)[C@H](CO)NC(=O)[C@@H](NC(=O)[C@H](Cc3ccccc3)NC(=O)[C@@H](NC(=O)CNC(=O)[C@H](CCC(=O)O)NC(=O)C(C)(C)NC(=O)[C@@H](N)Cc3ccc(O)c(Br)c3)[C@@H](C)O)[C@@H](C)CC)CCCC2)[C@@H](C)CC)CCCC1)C(=O)N[C@@H](Cc1c[nH]cn1)C(=O)N[C@@H](CCC(N)=O)C(=O)N[C@@H](CCC(N)=O)C(=O)N[C@@H](CC(=O)O)C(=O)N[C@@H](Cc1ccccc1)C(=O)N[C@H](C(=O)N[C@@H](CC(N)=O)C(=O)N[C@@H](Cc1c[nH]c2ccccc12)C(=O)N[C@@H](CC(C)C)C(=O)N[C@@H](CC(C)C)C(=O)N[C@@H](C)C(=O)N[C@@H](CCC(N)=O)C(=O)N[C@@H](CCCCN)C(=O)NCC(=O)N[C@@H](CCCCN)C(=O)N[C@@H](CCCCN)C(=O)N[C@@H](CC(N)=O)C(=O)N[C@@H](CC(=O)O)C(=O)N[C@@H](Cc1c[nH]c2ccccc12)C(=O)N[C@@H](CCCCN)C(=O)N[C@@H](Cc1c[nH]cn1)C(=O)N[C@@H](CC(N)=O)C(=O)N[C@H](C(=O)N[C@H](C(=O)N[C@@H](CCC(N)=O)C(=O)N[C@@H](Cc1c[nH]cn1)C(=O)O)[C@@H](C)O)[C@@H](C)CC)C(C)C [Example 72, (3Br-Tyr^1, Aib^2, A5c^11, 14, His^43)hGIP(1-43)-OH] |  | 0.92 nM |  | 
6 | [3Cl-Tyr^1, Aib^2, A5c^11, Cys^43(succinimide-N—(CH2)2—C(O)NH—(CH2)3—O—CH2—CH(20K PEG)-CH2-20K PEG)]hGIP(1-43)-NH2 [Example 102] |  |  |  | Ki ([2]; membranes of CHO-K1 cells expressing the human recombinant GIP receptor, 0.05 nM [125I]GIP, 100 minutes at 25° C., read-out: Ki): 42.4 nM
7 | [Tic(7-OH)][Aib]EGTFISDY[Ac5c]IAMDKIHQQDFVNWLLAQKGKKNDWKHNITQH-OH [Example 77, (7HO-Tic^1, Aib^2, A5c^11, His^43)hGIP(1-43)-OH] |  | 4.82 nM |  | 
8 | [Tyr(3-OMe)][Aib]EGTFISDY[Ac5c]IA[Ac5c]DKIHQQDFVNWLLAQKGKKNDWKHNI[Ac5c]QH-OH [Example 75, (3MeO-Tyr^1, Aib^2, A5c^11, 14, His^43)hGIP(1-43)-OH] |  |  |  | half-life [1]: 18.6 h; half-life [3]: > 60 h
